Experimental findings from ChEMBL document CHEMBL3120136 (J Med Chem, 2014) are described below.

In assay [1] the test system is Hepatitis C virus. Description: Antiviral activity against Hepatitis C virus infected in human HuH7 cells assessed as inhibition of HCV subgenomic replicon replication after 72 hrs by ELISA. The assay is classed as functional, organism-based, Hepacivirus hominis, Huh-7. The settings on record: Hepatitis C virus, Huh-7, 72 h; read-out: EC50. On the technique in general: In antiviral work, replicon cells carry a viral genome segment that copies itself.

Assay [2] in a line: Inhibition of Hepatitis C virus full-length NS3/4A protease assessed as quenched-fluorogenic RET-S1 substrate cleavage incubated for 10 mins prior to substrate addition by FRET analysis. On the set-up: species or system Hepacivirus hominis.

One may read the EC50 as the concentration needed to bring the measured effect to its halfway point. As a reminder, the IC50 is the point on the concentration scale where inhibition reaches its midpoint. Turning to `CC(C)(C)OC(=O)N[C@H]1CCCCC/C=C\[C@@H]2C[C@@]2(C(=O)O)NC(=O)[C@@H]2C[C@@H](OC(=O)N3Cc4ccc(F)cc4C3)CN2C1=O`, the EC50 in assay [1] was found to be 3220 nM. In addition, the IC50 in assay [2] was 38 nM.
On to `CN1CCN(c2ccc3c(c2)CN(C(=O)O[C@@H]2C[C@H]4C(=O)N[C@]5(C(=O)NS(=O)(=O)C6CC6)C[C@H]5/C=C\CCCCC[C@H](NC(=O)OC(C)(C)C)C(=O)N4C2)C3)CC1`, for which the 50% effective concentration (EC50) in assay [1] amounted to 41 nM. Also, in assay [2], the concentration for half-maximal inhibition (IC50) is 2 nM.
`CC(C)Nc1ccc2c(c1)CN(C(=O)O[C@@H]1C[C@H]3C(=O)N[C@]4(C(=O)NS(=O)(=O)C5CC5)C[C@H]4/C=C\CCCCC[C@H](NC(=O)OC(C)(C)C)C(=O)N3C1)C2`: in assay [1], the concentration giving a half-maximal response (EC50) was 11 nM. In assay [2], the half-maximal inhibitory concentration (IC50) was found to be 4.3 nM.
For `CC(C)(C)OC(=O)N[C@H]1CCCCC/C=C\[C@@H]2C[C@@]2(C(=O)NS(=O)(=O)C2CC2)NC(=O)[C@@H]2C[C@@H](OC(=O)N3Cc4cccc(N5CCOCC5)c4C3)CN2C1=O` the same measures were 77 nM and 1.8 nM.
As for `CC(C)(C)OC(=O)N[C@H]1CCCCC/C=C\[C@@H]2C[C@@]2(C(=O)NS(C)(=O)=O)NC(=O)[C@@H]2C[C@@H](OC(=O)N3Cc4ccccc4C3)CN2C1=O`, the concentration giving a half-maximal response (EC50) in assay [1] was determined as 156 nM. For the same molecule, the IC50 in assay [2] is 6.6 nM.
For `CC(C)S(=O)(=O)NC(=O)[C@@]12C[C@H]1/C=C\CCCCC[C@H](NC(=O)OC(C)(C)C)C(=O)N1C[C@H](OC(=O)N3Cc4ccccc4C3)C[C@H]1C(=O)N2` the same measures were 21 nM and 4.8 nM.
For `CC(C)(C)OC(=O)N[C@H]1CCCCC/C=C\[C@@H]2C[C@@]2(C(=O)NS(=O)(=O)C(C)(C)C)NC(=O)[C@@H]2C[C@@H](OC(=O)N3Cc4ccccc4C3)CN2C1=O` the same measures were 194 nM and 37 nM.
The matching figures for `CC(C)(C)OC(=O)N[C@H]1CCCCC/C=C\[C@@H]2C[C@@]2(C(=O)NS(=O)(=O)C2CC2)NC(=O)[C@@H]2C[C@@H](OC(=O)N3Cc4cccc(Cl)c4C3)CN2C1=O`: 2.2 nM and 3 nM.
With `CC(C)(C)OC(=O)N[C@H]1CCCCC/C=C\[C@@H]2C[C@@]2(C(=O)NS(=O)(=O)C2CC2)NC(=O)[C@@H]2C[C@@H](OC(=O)N3Cc4cccc(Br)c4C3)CN2C1=O`, the EC50 in assay [1] turned out to be 49 nM. The IC50 in assay [2] stood at 1.1 nM.
The matching figures for `CC(C)(C)OC(=O)N[C@H]1CCCCC/C=C\[C@@H]2C[C@@]2(C(=O)NS(=O)(=O)C2CC2)NC(=O)[C@@H]2C[C@@H](OC(=O)N3Cc4cccc(C(F)(F)F)c4C3)CN2C1=O`: 29 nM and 1.2 nM.
For `CC(C)(C)OC(=O)N[C@H]1CCCCC/C=C\[C@@H]2C[C@@]2(C(=O)NS(=O)(=O)C2CC2)NC(=O)[C@@H]2C[C@@H](OC(=O)N3Cc4cccc(N)c4C3)CN2C1=O` the same measures were 4.1 nM and 0.2 nM.
For `CC(C)(C)OC(=O)N[C@H]1CCCCC/C=C\[C@@H]2C[C@@]2(C(=O)NS(=O)(=O)C2CC2)NC(=O)[C@@H]2C[C@@H](OC(=O)N3Cc4ccc(F)cc4C3)CN2C1=O` the same measures were 4 nM and 3 nM.
Turning to `CC(C)(C)OC(=O)N[C@H]1CCCCC/C=C\[C@@H]2C[C@@]2(C(=O)NS(=O)(=O)C2CC2)NC(=O)[C@@H]2C[C@@H](OC(=O)N3Cc4ccc(C(F)(F)F)cc4C3)CN2C1=O`, the 50% effective concentration (EC50) in assay [1] came to 20 nM. In assay [2], the IC50 amounted to 21 nM.
Regarding `COc1ccc2c(c1)CN(C(=O)O[C@@H]1C[C@H]3C(=O)N[C@]4(C(=O)NS(=O)(=O)C5CC5)C[C@H]4/C=C\CCCCC[C@H](NC(=O)OC(C)(C)C)C(=O)N3C1)C2`, in assay [1], the EC50 amounted to 22 nM. In addition, the IC50 in assay [2] worked out at 2.3 nM.
Take `CC(C)(C)OC(=O)N[C@H]1CCCCC/C=C\[C@@H]2C[C@@]2(C(=O)NS(=O)(=O)C2CC2)NC(=O)[C@@H]2C[C@@H](OC(=O)N3Cc4ccc(C#N)cc4C3)CN2C1=O`: the EC50 in assay [1] is 112 nM. Moreover, the IC50 in assay [2] worked out at 2.5 nM.
The matching figures for `CC(C)(C)OC(=O)N[C@H]1CCCCC/C=C\[C@@H]2C[C@@]2(C(=O)NS(=O)(=O)C2CC2)NC(=O)[C@@H]2C[C@@H](OC(=O)N3Cc4ccc(Cl)cc4C3)CN2C1=O`: 9.2 nM and 2 nM.
For `CC(C)(C)OC(=O)N[C@H]1CCCCC/C=C\[C@@H]2C[C@@]2(C(=O)NS(=O)(=O)C2CC2)NC(=O)[C@@H]2C[C@@H](OC(=O)N3Cc4ccc(N)cc4C3)CN2C1=O` the same measures were 42 nM and 1.5 nM.
For the molecule `CC(C)(C)OC(=O)N[C@H]1CCCCC/C=C\[C@@H]2C[C@@]2(C(=O)NS(=O)(=O)C2CC2)NC(=O)[C@@H]2C[C@@H](OC(=O)N3Cc4c(F)ccc(F)c4C3)CN2C1=O`, the half-maximal effective concentration (EC50) in assay [1] was found to be 5.1 nM. In addition, the 50% inhibitory concentration (IC50) in assay [2] was found to be 0.7 nM.
The matching figures for `CC(C)(C)OC(=O)N[C@H]1CCCCC/C=C\[C@@H]2C[C@@]2(C(=O)NS(=O)(=O)C2CC2)NC(=O)[C@@H]2C[C@@H](OC(=O)N3Cc4c(Cl)ccc(Cl)c4C3)CN2C1=O`: 7.3 nM and 1.7 nM.
The matching figures for `CC(C)(C)OC(=O)N[C@H]1CCCCC/C=C\[C@@H]2C[C@@]2(C(=O)NS(=O)(=O)C2CC2)NC(=O)[C@@H]2C[C@@H](OC(=O)N3Cc4cc(Cl)c(Cl)cc4C3)CN2C1=O`: 24 nM and 1 nM.
In the case of `CC(C)(C)OC(=O)N[C@H]1CCCCC/C=C\[C@@H]2C[C@@]2(C(=O)NS(=O)(=O)C2CC2)NC(=O)[C@@H]2C[C@@H](OC(=O)N3Cc4ccc(N5CCOCC5)cc4C3)CN2C1=O`, in assay [1], the half-maximal effective concentration (EC50) turned out to be 45 nM. Also, the 50% inhibitory concentration (IC50) in assay [2] was found to be 0.8 nM.
For `CC(C)(C)OC(=O)N[C@H]1CCCCC/C=C\[C@@H]2C[C@@]2(C(=O)NS(=O)(=O)C2CC2)NC(=O)[C@@H]2C[C@@H](OC(=O)N3CCc4cccc(F)c4C3)CN2C1=O` the same measures were 12 nM and 1.1 nM.
The matching figures for `CC(C)(C)OC(=O)N[C@H]1CCCCC/C=C\[C@@H]2C[C@@]2(C(=O)NS(=O)(=O)C2CC2)NC(=O)[C@@H]2C[C@@H](OC(=O)N3CCc4cccc(Cl)c4C3)CN2C1=O`: 43 nM and 2.1 nM.
For `CC(C)(C)OC(=O)N[C@H]1CCCCC/C=C\[C@@H]2C[C@@]2(C(=O)NS(=O)(=O)C2CC2)NC(=O)[C@@H]2C[C@@H](OC(=O)N3CCc4cccc(C(F)(F)F)c4C3)CN2C1=O` the same measures were 13 nM and 0.8 nM.
Regarding `CC(C)(C)OC(=O)N[C@H]1CCCCC/C=C\[C@@H]2C[C@@]2(C(=O)NS(=O)(=O)C2CC2)NC(=O)[C@@H]2C[C@@H](OC(=O)N3CCc4c(F)ccc(F)c4C3)CN2C1=O`, in assay [1], the concentration for a half-maximal effect (EC50) was determined as 24 nM. Also, the IC50 in assay [2] was 1.2 nM.
The matching figures for `CC(C)(C)OC(=O)N[C@H]1CCCCC/C=C\[C@@H]2C[C@@]2(C(=O)O)NC(=O)[C@@H]2C[C@@H](OC(=O)N3Cc4ccccc4C3)CN2C1=O`: 1550 nM and 11 nM.
The matching figures for `CC(C)(C)OC(=O)N[C@H]1CCCCC/C=C\[C@@H]2C[C@@]2(C(=O)O)NC(=O)[C@@H]2C[C@@H](OC(=O)N3Cc4cccc(Cl)c4C3)CN2C1=O`: 516 nM and 13 nM.
For the molecule `CC(C)(C)OC(=O)N[C@H]1CCCCC/C=C\[C@@H]2C[C@@]2(C(=O)O)NC(=O)[C@@H]2C[C@@H](OC(=O)N3Cc4cccc(F)c4C3)CN2C1=O`, in assay [1], the EC50 worked out at 1270 nM. In addition, the IC50 in assay [2] worked out at 10 nM.
The matching figures for `CC(C)(C)OC(=O)N[C@H]1CCCCC/C=C\[C@@H]2C[C@@]2(C(=O)O)NC(=O)[C@@H]2C[C@@H](OC(=O)N3Cc4ccc(C(F)(F)F)cc4C3)CN2C1=O`: 7520 nM and 195 nM.
The matching figures for `CC(C)(C)OC(=O)N[C@H]1CCCCC/C=C\[C@@H]2C[C@@]2(C(=O)O)NC(=O)[C@@H]2C[C@@H](OC(=O)N3Cc4ccc(Cl)cc4C3)CN2C1=O`: 3160 nM and 110 nM.
The matching figures for `CC(C)(C)OC(=O)N[C@H]1CCCCC/C=C\[C@@H]2C[C@@]2(C(=O)O)NC(=O)[C@@H]2C[C@@H](OC(=O)N3Cc4cc(Cl)c(Cl)cc4C3)CN2C1=O`: 25000 nM and 483 nM.
For `CC(C)(C)OC(=O)N[C@H]1CCCCC/C=C\[C@@H]2C[C@@]2(C(=O)O)NC(=O)[C@@H]2C[C@@H](OC(=O)N3Cc4c(Cl)ccc(Cl)c4C3)CN2C1=O`, the EC50 in assay [1] stood at 1480 nM. Besides, the half-inhibitory concentration (IC50) in assay [2] came out at 21 nM.
For `CC(C)(C)OC(=O)N[C@H]1CCCCC/C=C\[C@@H]2C[C@@]2(C(=O)NS(=O)(=O)C2CC2)NC(=O)[C@@H]2C[C@@H](OC(=O)N3Cc4ccccc4C(C)(C)C3)CN2C1=O` the same measures were 7.7 nM and 0.8 nM.
On to `CC(C)(C)OC(=O)N[C@H]1CCCCC/C=C\[C@@H]2C[C@@]2(C(=O)NS(=O)(=O)C2CC2)NC(=O)[C@@H]2C[C@@H](OC(=O)N3CCc4c(F)cccc4C3)CN2C1=O`, for which the EC50 in assay [1] is 12 nM. The 50% inhibitory concentration (IC50) in assay [2] amounted to 0.7 nM.
For `CN(C)c1cccc2c1CCN(C(=O)O[C@@H]1C[C@H]3C(=O)N[C@]4(C(=O)NS(=O)(=O)C5CC5)C[C@H]4/C=C\CCCCC[C@H](NC(=O)OC(C)(C)C)C(=O)N3C1)C2` the same measures were 20 nM and 2.4 nM.
For `CC(C)(C)OC(=O)N[C@H]1CCCCC/C=C\[C@@H]2C[C@@]2(C(=O)NS(=O)(=O)C2CC2)NC(=O)[C@@H]2C[C@@H](OC(=O)N3CCc4cc(F)ccc4C3)CN2C1=O` the same measures were 11 nM and 2 nM.
For `CC(C)(C)OC(=O)N[C@H]1CCCCC/C=C\[C@@H]2C[C@@]2(C(=O)NS(=O)(=O)C2CC2)NC(=O)[C@@H]2C[C@@H](OC(=O)N3CCc4cc(C(F)(F)F)ccc4C3)CN2C1=O` the same measures were 35 nM and 2.6 nM.
Take `CC(C)(C)OC(=O)N[C@H]1CCCCC/C=C\[C@@H]2C[C@@]2(C(=O)NS(=O)(=O)C2CC2)NC(=O)[C@@H]2C[C@@H](OC(=O)N3CCc4ccc(Cl)cc4C3)CN2C1=O`: in assay [1], the 50% effective concentration (EC50) amounted to 65 nM. For the same molecule, in assay [2], the IC50 was 4.1 nM.
